US20240034729A9, “HETEROCYCLIC COMPOUND, INTERMEDIATE, PREPARATION METHOD THEREFOR AND APPLICATION THEREOF” (WUHAN LL SCIENCE AND TECHNOLOGY DEVELOPMENT CO., LTD., priority 2018, published 2024)
pIC50: −log10 of the molar value. Where two headings read alike, the source gives them in different places.

Molecular target: hP2X3 (human purinergic P2X receptor subtype 3) (Homo sapiens (Human), UniProt P56373)
Experiment: FLIPR calcium assay, hP2X3 expressed in HEK293 cells
Format: cell-based
Conditions: read-out: P2X3 IC50
[1] = HEK293 cells expressing hP2X3, agonist BZ-ATP 2.5 μM, class symbols

Sequence of hP2X3 (human purinergic P2X receptor subtype 3) (P56373 whole entry): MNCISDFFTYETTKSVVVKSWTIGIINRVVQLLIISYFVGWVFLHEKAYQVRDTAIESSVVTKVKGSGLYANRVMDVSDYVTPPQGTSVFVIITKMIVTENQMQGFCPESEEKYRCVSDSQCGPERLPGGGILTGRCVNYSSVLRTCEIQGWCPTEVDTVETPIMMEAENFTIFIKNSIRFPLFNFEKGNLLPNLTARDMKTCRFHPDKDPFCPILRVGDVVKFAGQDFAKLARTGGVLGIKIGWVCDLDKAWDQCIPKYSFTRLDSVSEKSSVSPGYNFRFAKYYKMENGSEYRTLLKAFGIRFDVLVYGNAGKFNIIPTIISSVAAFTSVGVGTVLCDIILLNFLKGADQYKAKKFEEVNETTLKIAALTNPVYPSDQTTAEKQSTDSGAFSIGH

Row | SMILES | pIC50 | pIC50 [1]
1 | CNC(=O)C1(c2cc(F)c(-c3nc4cc(C)ccn4c3C[C@H]3CN(C(=O)OC)CCO3)c(F)c2)CC1 [Compound 66] | 6.70 to 7.30 | 
2 | CNC1(c2cc(F)c(-c3nc4cc(C)ccn4c3C[C@H]3CN(C(=O)OC)CCO3)c(F)c2)COC1 [Compound 69, methyl (S)-2-((2-(2,6-difluoro-4-(3-(methylamino)oxetan-3-yl)phenyl)-7-methylimidazo[1,2-a]pyridin-3-yl)methyl) morpholine-4-carboxylate] | 7.30 to 8.00 | 
3 | COC(=O)N1CCO[C@@H](Cc2c(-c3c(F)cc(-n4ccc(C(C)(C)O)n4)cc3F)nc3cc(C)ccn23)C1 [Compound 126, methyl (S)-2-((2-(2,6-difluoro-4-(3-(2-hydroxypropan-2-yl)-1H-pyrazol-1-yl)phenyl)-7-methylimidazo[1,2-a]pyridin-3-yl)methyl)morpholine-4-carboxylate] | 7.30 to 8.00 | 
4 | COC(=O)N1CCO[C@@H](Cc2c(-c3c(F)cc(Nc4ccc(F)o4)cc3F)nc3cc(C)ccn23)C1 [Compound 73] | 6.70 to 7.30 | 
5 | COC(=O)N1CCO[C@@H](Cc2c(-c3c(F)cc(-c4ccc(C(=O)O)cn4)cc3F)nc3cc(C)ccn23)C1 [Compound 145] | 6.70 to 7.30 | 
6 | C=CC(=O)Nc1cc(F)c(-c2nc3cc(C)ccn3c2C[C@H]2CN(C(=O)OC)CCO2)c(F)c1 [Compound 87] | 6.70 to 7.30 | 
7 | CNC(=O)c1cc(F)c(-c2nc3cc(C)ccn3c2CN2CCN(C(=O)OC)CC2)c(F)c1 [Compound 32] |  | 5.30 to 6.70
8 | CNC(=O)c1cc(F)c(-c2nc3cc(C)ccn3c2C[C@H]2CN(C(=O)OC)CCN2)c(F)c1 [Compound 46] |  | 5.30 to 6.70
9 | COC(=O)c1cn(-c2cc(F)c(-c3nc4cc(C)ccn4c3C[C@H]3CN(C(=O)OC)CCO3)c(F)c2)cn1 [Compound 108] |  | 5.30 to 6.70
10 | COC(=O)N1CCO[C@@H](Cc2c(-c3c(F)cc(NC(=O)C4CCC(C(=O)O)CC4)cc3F)nc3cc(C)ccn23)C1 (stereo partly drawn) [Compound 82] | 7.30 to 8.00 | 
11 | Cc1ccn2c(Cc3cc(C#N)ccn3)c(-c3c(F)cc(S(N)(=O)=O)cc3F)nc2c1 [Compound 186] | 7.19 | 
12 | COC(=O)N1CCO[C@@H](Cc2c(-c3cc(F)c(S(N)(=O)=O)cc3Cl)nc3cc(C)ccn23)C1 [Compound 180, methyl (S)-2-((2-(2-chloro-5-fluoro-4-sulfamoylphenyl)-7-methylimidazo[1,2-a]pyridin-3-yl)methyl)morpholine-4-carboxylate] | 9.70 | 
13 | CNC(=O)c1cc(F)c(-c2oc3nc(C)ccc3c2C[C@H]2CN(C(=O)OC)CCO2)c(F)c1 [Compound 56, methyl (S)-2-((2-(2,6-difluoro-4-(methylcarbamoyl)phenyl)-6-methylfurano[2,3-b]pyridin-3-yl)methyl)morpholine-4-carboxylate] | > 8.00 | 
14 | COC(=O)N1CCO[C@@H](Cc2c(-c3c(F)cc(-c4nccn4C)cc3F)nc3cc(C)ccn23)C1 [Compound 9, methyl (S)-2-((2-(2,6-difluoro-4-(1-methyl-1H-imidazol-2-yl)phenyl)-7-methylimidazo[1,2-a]pyridin-3-yl)methyl)morpholine-4-carboxylate] |  | 5.30 to 6.70
15 | COC(=O)N1CCO[C@@H](Cc2c(-c3c(F)cc(NC4CC(=O)C4)cc3F)nc3cc(C)ccn23)C1 [Compound 78] | 7.30 to 8.00 | 
16 | CNC(=O)Oc1cc(F)c(-c2nc3cc(C)ccn3c2C[C@H]2CN(C(=O)OC)CCO2)c(F)c1 [Compound 36, methyl (S)-2-((2-(2,6-difluoro-4-(methylcarbamoyloxy)phenyl)-7-methylimidazo[1,2-a]pyridin-3-yl)methyl)morpholine-4-carboxylate] |  | 7.30 to 8.00
17 | COC(=O)N1CCO[C@@H](Cc2c(-c3c(F)cc(C4(C(N)=O)CC4)cc3F)nc3cc(C)ccn23)C1 [Compound 65] | 6.70 to 7.30 | 
18 | CNC(=O)c1cc(F)c(-c2nc3cc(C)ccn3c2CN2CCOCC2=O)c(F)c1 [Compound 47, 3,5-difluoro-N-methyl-4-(7-methyl-3-((3-oxo-4-morpholinyl)methyl)imidazo[1,2-a]pyridin-2-yl)benzamide] |  | 5.30 to 6.70
